Activity calls are given as the source filed them.
Columns and labels:
[1] = target: E3 ubiquitin-protein ligase Mdm2 (Homo sapiens, UniProt Q00987); test: enhancers of MDM2-luciferase reporter signal, concentration-effect titration, project on inhibitors of MDM2 ubiquitin ligase, cellular assay, luminescent readout, 384-well plate format (AID 1394); assay type: functional;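 note: MDM2 E3 inhibitors raise luminescence so EC50 is for signal enhancement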
[2] = target: T1, Microphthalmia-associated transcription factor (Homo sapiens, UniProt O75030); test: TRPM1 promoter luciferase signal decrease, dose response, MITF inhibitor project, cell-based, SK-MEL-5, cherry-picked, set 3 (AID 493073); assay type: functional
T1 sequence (O75030 whole entry): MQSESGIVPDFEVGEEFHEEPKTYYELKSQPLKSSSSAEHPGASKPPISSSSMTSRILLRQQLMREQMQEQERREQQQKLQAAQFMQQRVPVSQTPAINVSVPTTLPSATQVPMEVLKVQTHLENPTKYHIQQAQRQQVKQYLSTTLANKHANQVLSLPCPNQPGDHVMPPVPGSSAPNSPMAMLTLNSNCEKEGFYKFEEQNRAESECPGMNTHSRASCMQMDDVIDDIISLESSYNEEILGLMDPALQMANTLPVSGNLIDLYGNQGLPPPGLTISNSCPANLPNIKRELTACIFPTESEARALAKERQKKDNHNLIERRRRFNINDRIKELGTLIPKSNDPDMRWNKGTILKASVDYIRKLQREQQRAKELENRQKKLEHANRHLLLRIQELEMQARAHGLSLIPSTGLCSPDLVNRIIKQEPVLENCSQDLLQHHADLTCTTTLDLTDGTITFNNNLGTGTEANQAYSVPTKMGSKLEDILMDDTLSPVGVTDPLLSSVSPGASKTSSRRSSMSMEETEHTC

[3] = target: T2, Heat shock factor protein 1 (Mus musculus, UniProt P38532); test: HSF1 potentiators in luciferase reporter cells, confirmation, cell-based, NIH3T3, luminescence, dose retest (AID 435004); assay type: functional;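 note: stress induced by proteasome inhibitor MG132 added 30 min after compound; luciferase reporter driven by HSF1 response element in NIH3T3 cells; actives raise luminescence as potentiators of the MG132 stress response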
T2 sequence (P38532 whole entry): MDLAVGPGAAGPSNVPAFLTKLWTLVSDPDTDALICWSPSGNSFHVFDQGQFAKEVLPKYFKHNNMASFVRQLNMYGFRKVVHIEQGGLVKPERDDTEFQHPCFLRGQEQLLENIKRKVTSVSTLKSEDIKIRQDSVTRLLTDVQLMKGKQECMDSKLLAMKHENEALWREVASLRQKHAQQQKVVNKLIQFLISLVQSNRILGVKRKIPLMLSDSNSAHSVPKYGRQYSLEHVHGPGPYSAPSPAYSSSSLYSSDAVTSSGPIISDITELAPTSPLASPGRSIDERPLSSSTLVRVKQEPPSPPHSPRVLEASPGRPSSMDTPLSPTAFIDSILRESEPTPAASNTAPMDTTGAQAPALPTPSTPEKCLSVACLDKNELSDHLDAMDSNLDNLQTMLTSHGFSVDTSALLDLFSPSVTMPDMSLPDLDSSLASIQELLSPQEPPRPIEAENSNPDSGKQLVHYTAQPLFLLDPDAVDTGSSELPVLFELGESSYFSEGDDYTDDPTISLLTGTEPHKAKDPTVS

[4] = HepG2 cell cytotoxicity, dose response, cytotoxicity control for Shn3 inhibitor project, CellTiter-Glo, cherry-picked (AID 624134); assay type: functional, cell-based
[5] = Shn3 3'UTR reporter inhibitors, dose response, cell-based, Clone20 osteoblasts, firefly luciferase, cherry-picked (AID 624132); assay type: functional;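 note: firefly luciferase luminescence from reporter carrying the Shn3 3'UTR in osteoblasts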
[6] = control 3'UTR Renilla luciferase suppression, dose response, counter-screen for Shn3 inhibitor project, cell-based, Clone20-Shn3RL, cherry-picked (AID 624133); assay type: functional
[7] = cytotoxicity in HEK-293T cells, dose response, cytotoxicity control for TCR NF-kB inhibitor project, luminescence, T-cell screen hits (AID 489026); assay type: functional, cell-based;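 note: cells exposed to compound about 14 hours before the viability readout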
A-375 [8] = test: MITF: Counter assay: A375 proliferation Measured in Cell-Based System Using Plate Reader - 2084-03_Inhibitor_Dose_DryPowder_Activity. [Related pubchem assays (depositor defined):AID488944]; assay type: functional; conditions: Homo sapiens
HeLa = test: HeLa cell cytotoxicity, dose response, cytotoxicity control for MITF activator project, CellTiter-Glo luminescence, cherry-pick samples (AID 540259); assay type: functional, cell-based; conditions: Homo sapiens
Streptococcus = test: Group A Streptococcus viability loss, dose response, counter-screen for streptokinase expression inhibitor project, luminescence, BacTiterGlo (AID 1915); assay type: functional, organism-based;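 note: potency for reduction of bacterial viability or growth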
Streptokinase A = target: T3, Streptokinase A (Streptococcus pyogenes serotype M1, UniProt P10520); test: S. pyogenes streptokinase expression inhibitors, potency, dose response, plasminogen activation absorbance, OD405 (AID 1914); assay type: functional, Streptococcus pyogenes M1 GAS;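 note: secreted streptokinase activity via plasminogen activation per viability signal from cell pellet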
T3 sequence (P10520 whole entry): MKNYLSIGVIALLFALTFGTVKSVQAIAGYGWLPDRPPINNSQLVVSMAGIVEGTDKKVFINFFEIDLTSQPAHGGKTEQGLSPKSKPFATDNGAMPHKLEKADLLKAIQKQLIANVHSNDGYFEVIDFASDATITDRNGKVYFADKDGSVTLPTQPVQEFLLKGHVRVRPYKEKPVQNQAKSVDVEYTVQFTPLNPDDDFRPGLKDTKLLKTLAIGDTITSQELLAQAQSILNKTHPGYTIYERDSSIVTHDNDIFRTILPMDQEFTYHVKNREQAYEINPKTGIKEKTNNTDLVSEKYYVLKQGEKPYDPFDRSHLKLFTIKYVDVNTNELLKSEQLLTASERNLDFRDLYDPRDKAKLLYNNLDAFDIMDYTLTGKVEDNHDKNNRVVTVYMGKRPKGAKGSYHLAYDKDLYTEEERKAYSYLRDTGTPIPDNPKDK

[9] = system: Streptococcus sp. 'group A'; test: growth inhibition of control SK(-) GAS strain, dose response, counter-screen for streptokinase expression inhibitor project, luminescence, kanamycin, BacTiterGlo, confirmation (AID 1900); assay type: functional, organism-based
Vero [10] = test: cells; assay type: functional, cell-based; conditions: Chlorocebus sabaeus
Vero [11] = test: cells; assay type: functional; conditions: Chlorocebus sabaeus
[12] = target: T4, Long-chain-fatty-acid--AMP ligase FadD28 (Mycobacterium tuberculosis, UniProt P9WQ59); test: Fluorescence polarization aasay to screen for inhibitors that compete for the binding of FadD28 to a bisubstrate Measured in Biochemical System Using Plate Reader - 2147-01_Inhibitor_Dose_CherryPick_Activity.; assay type: functional, Mycobacterium tuberculosis H37Rv
T4 sequence (P9WQ59 whole entry): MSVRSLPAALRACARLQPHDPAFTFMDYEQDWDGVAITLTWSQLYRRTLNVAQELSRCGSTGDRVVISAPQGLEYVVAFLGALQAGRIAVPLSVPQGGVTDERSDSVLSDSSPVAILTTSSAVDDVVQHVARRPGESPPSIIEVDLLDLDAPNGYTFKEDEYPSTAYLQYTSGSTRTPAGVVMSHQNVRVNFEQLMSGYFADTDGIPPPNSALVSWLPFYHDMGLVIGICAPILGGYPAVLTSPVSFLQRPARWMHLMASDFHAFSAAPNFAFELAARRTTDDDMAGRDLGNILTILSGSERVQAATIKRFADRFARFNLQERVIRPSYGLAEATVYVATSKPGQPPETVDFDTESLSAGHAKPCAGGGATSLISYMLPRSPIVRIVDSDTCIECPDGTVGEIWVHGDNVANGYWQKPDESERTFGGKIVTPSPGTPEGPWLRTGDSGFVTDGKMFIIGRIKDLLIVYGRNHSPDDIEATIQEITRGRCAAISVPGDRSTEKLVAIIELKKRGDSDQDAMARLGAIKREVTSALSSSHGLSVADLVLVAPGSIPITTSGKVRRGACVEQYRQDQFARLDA

A-375 [13] = test: A375 melanoma cell viability reduction, dose response, counter-screen for MITF modulator project, cherry-pick samples, set 2 (AID 540335); assay type: functional, cell-based; conditions: Homo sapiens

E3 ubiquitin-protein ligase Mdm2, sequence (Q00987 whole entry): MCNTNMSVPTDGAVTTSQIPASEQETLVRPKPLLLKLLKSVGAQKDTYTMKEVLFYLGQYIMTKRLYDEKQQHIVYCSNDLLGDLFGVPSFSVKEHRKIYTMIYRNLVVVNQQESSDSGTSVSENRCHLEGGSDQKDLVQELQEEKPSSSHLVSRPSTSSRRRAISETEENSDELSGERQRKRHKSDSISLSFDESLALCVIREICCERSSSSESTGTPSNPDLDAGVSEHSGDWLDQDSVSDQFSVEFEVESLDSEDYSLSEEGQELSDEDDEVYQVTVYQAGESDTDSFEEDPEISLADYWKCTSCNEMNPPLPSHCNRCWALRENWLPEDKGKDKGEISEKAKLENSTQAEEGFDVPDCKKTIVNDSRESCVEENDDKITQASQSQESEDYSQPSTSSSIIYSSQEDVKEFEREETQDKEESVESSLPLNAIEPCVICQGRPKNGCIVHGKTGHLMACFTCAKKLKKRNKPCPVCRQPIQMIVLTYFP

Compound: O=C(/C=C/c1cccc([N+](=O)[O-])c1)n1cnc2ccccc21
- EC50 [1]: 1.68 µM (active)
- AC50 [2]: 4.39 µM (active)
- EC50 [3]: 1.62 µM (inconclusive)
- AC50 [4]: > 70 µM (inactive)
- AC50 [5]: 0.594 µM (active)
- AC50 [6]: 14.7 µM (active)
- IC50 [7]: > 80 µM (inactive)
- AC50 (A-375 [8]): 28.2 µM (active)

Compound: O=C(NCCc1ccccc1)c1nccc2ccccc12
- AC50 (HeLa): 68.6 µM (active)

Compound: Cc1nc(N)sc1N=Nc1ccc(F)cc1
- EC50 (Streptococcus): > 150 µM (not active)
- AC50 (HeLa): 79.5 µM (active)
- EC50 (Streptokinase A): > 150 µM (not active)
- EC50 [9]: 5.74 µM (active)

Compound: COc1ccc(C)c2sc(N(CCCN(C)C)C(=O)c3ccc4c(c3)OCCO4)nc12
- IC50 (Vero [10]): 24.2 µM (active)

Compound: ClCCn1cnc2c(SCc3ccccc3)ncnc21
- CC50 (Vero [11]): > 25 µM (active)
- IC50 (Vero [10]): 2.03 µM (active)

Compound: O=C(O)c1cc(N/N=C/C(Cl)=C/c2ccccc2)ccc1Cl
- AC50 [2]: 10.4 µM (active)
- AC50 [12]: 13.6 µM (active)
- AC50 (A-375 [13]): > 11 µM (active)
- AC50 (A-375 [8]): > 11 µM (active)

Source: ChEMBL document CHEMBL1201862, “PubChem BioAssay data set” (2004)
